The source of these data is publication PMC9231138, “Dihydrotanshinone I Enhances Cell Adhesion and Inhibits Cell Migration in Osteosarcoma U−2 OS Cells through CD44 and Chemokine Signaling” (Molecules, 2022).

Assay [1] has as its system HeLa cells. Put plainly: MTT cell proliferation assay, HeLa cells. The assay is classed as cell-based. To be noted: Homo sapiens, MTT, 24 h, read-out: IC50 HeLa cells (24 h). As to the method: (§1) The effects of tanshinones (DS−1 to DS−5) on the proliferation of U−2 OS cells, HeLa cells, and NRK−49F cells were measured by the classical MTT method with minor modifications as follows. Cells were seeded at 5000 per well in 96-well plates, with each group being repeated in 5 wells, and were incubated for 12 h. DS−1 to DS−5 were added at gradient concentrations, then incubated for 24 and 48 h, respectively. Then, 20 μL MTT solution (solved in PBS, 5 mg/mL) was added to every well, and the cells were further incubated at 37 °C for 4 h until a purple precipitate was visible. The plate was centrifuged at 1000 rpm for 1 min; the supernatant was suctioned, and 150 μL of DMSO was added per well; the plate was shaken on a shaker protected from light for 15 min. We placed the plate in an enzyme marker and measured the absorbance values at a 490 nm wavelength.

In assay [2] the test system is NRK−49F cells. Put plainly: MTT cell proliferation assay, NRK−49F cells. The assay is classed as cell-based, rat. As to conditions: MTT, 24 h, normal rat kidney cells, read-out: IC50 NRK−49F cells (24 h). The procedure: as §1
A general note: Tetrazolium assays rely on reduction of a dye to a coloured formazan, in cell work by metabolically active cells.

For assay [3], the system named is U−2 OS cells. Put plainly: MTT cell proliferation assay, U−2 OS cells. In kind it is cell-based. To be noted: Homo sapiens, U2OS, MTT. The procedure:
as §1

[4] abbreviates: 24 h, read-out: IC50 U−2 OS cells (24 h).
The mark [5] stands for this setting: 48 h, read-out: IC50 U−2 OS cells (48 h).

Where two headings read alike, the source gives them in different places. Bounds are passed on as bounds.

For orientation: IC50 means the midpoint of a concentration-inhibition curve. Take `C[C@H]1COC2=C1C(=O)C(=O)c1c2ccc2c1CCCC2(C)C` [DS−2, Cryptotanshinone]: the IC50 amounted to 52.1 ± 3.2 µM in assay [1], 35.4 ± 3.25 µM in assay [2], 47.8 ± 4.96 µM in assay [3] (setting [4]) and 25.6 ± 0.81 µM in assay [3] (setting [5]).
In the same order, the values of `Cc1coc2c1C(=O)C(=O)c1c-2ccc2c(C)cccc12` [DS−3, Tanshinone I] are 20.9 ± 2.81 µM, 108 ± 28.9 µM, 17.8 ± 1.03 µM and 4.54 ± 1 µM.
The like results for `CC1=CCCc2c1ccc1c2C(=O)C(=O)c2c(C)coc2-1` [DS−4, 1,2-Dihydrotanshinquinone] were, in that order, 25 ± 2.03 µM, 31.8 ± 1.59 µM, 22.1 ± 1.31 µM and 5.89 ± 0.4 µM.
In the same order, the values of `Cc1coc2c1C(=O)C(=O)c1c-2ccc2c1CCCC2(C)C` [DS−5, Tanshinone IIA] are 32.1 ± 1.94 µM, over 50 µM, 25.4 ± 1.43 µM and 5.91 ± 1.08 µM.
